Test results published in PMC8634903, “Effects of Dicyclohexyl Phthalate Exposure on PXR Activation and Lipid Homeostasis in Mice” (Environmental Health Perspectives, 2021).

Experiments:
[1] = target: T1, rat pregnane X receptor (rPXR) (Rattus norvegicus, UniProt Q9R1A7); assay: GAL4-LBD luciferase reporter assay in LS180 cells at […] DCHP; type: cell-based
T1 construct: gene Nr1i2
T1 sequence (Q9R1A7 143-431 limits assumed): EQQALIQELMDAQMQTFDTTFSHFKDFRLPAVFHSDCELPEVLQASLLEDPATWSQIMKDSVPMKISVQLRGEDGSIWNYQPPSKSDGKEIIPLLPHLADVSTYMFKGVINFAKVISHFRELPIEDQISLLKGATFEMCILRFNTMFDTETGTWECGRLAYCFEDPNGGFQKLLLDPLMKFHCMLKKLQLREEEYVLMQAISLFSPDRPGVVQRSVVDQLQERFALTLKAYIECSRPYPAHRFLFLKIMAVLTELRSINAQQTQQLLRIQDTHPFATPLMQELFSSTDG

[2] = target: T2, pregnane X receptor (hPXR) (Homo sapiens, UniProt O75469); assay: LanthaScreen TR-FRET competitive binding assay with recombinant GST-hPXR LBD; also cell reporter assay (EC50 […])
T2 construct: gene NR1I2
T2 sequence (O75469 130-434 limits assumed): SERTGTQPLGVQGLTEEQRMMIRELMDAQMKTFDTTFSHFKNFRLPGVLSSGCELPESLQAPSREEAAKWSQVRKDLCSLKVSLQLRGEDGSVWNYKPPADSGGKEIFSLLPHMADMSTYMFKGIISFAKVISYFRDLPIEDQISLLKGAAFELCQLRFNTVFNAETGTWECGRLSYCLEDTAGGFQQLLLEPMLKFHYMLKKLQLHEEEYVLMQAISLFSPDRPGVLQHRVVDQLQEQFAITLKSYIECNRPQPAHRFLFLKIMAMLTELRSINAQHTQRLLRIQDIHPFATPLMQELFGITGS

[3] = target: T2, pregnane X receptor (hPXR); assay: LanthaScreen TR-FRET competitive binding assay with recombinant GST-hPXR LBD (positive control); also cell reporter assay

Structure (SMILES)	GAL4-LBD luciferase reporter assay in LS180 cells at 10 μM DCHP [1]	IC50 [2] [µM]	LanthaScreen TR-FRET competitive binding assay with recombinant GST-hPXR LBD (po) [3]
O=C(OC1CCCCC1)c1ccccc1C(=O)OC1CCCCC1 [DCHP, dicyclohexyl phthalate]	DCHP activated three forms of PXR including hPXR, mPXR, and rat PXR (rPXR)	7.3	
CCCCC(CC)COC(=O)c1ccccc1C(=O)OCC(CC)CCCC (stereo not drawn) [DEHP, di(2-ethylhexyl) phthalate]			inhibition of FRET between fluorescein-labeled PXR ligand and recombinant GST-PXR LBD by DCHP and DEHP
